# Laboratory results as given in paper PMC3914206.
# Columns and labels:
# [1] = target: T1, panel of 442 kinases (Homo sapiens, UniProt P57058); format: binding; conditions: Compound Concentration 10 µM
# T1 construct: purchased KINOMEscan
# T1 sequence (P57058 1-714): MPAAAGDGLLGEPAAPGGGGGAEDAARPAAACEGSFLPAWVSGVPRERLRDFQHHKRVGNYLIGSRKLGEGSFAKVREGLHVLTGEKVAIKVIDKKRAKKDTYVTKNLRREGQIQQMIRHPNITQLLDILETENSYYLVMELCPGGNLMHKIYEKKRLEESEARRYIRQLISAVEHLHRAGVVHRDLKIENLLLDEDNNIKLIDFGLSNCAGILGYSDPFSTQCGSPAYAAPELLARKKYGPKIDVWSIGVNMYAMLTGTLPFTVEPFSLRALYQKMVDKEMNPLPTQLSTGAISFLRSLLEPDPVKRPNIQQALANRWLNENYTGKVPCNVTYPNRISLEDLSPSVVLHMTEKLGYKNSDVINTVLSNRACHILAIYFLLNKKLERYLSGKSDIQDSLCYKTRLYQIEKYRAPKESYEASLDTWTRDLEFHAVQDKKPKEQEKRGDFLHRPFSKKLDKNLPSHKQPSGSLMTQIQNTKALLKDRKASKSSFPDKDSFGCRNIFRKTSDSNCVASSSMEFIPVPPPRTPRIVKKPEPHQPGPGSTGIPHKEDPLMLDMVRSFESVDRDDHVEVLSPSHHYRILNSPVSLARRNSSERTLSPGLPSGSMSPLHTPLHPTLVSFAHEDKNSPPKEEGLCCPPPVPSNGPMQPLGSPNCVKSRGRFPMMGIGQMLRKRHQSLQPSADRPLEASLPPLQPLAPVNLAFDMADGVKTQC
# Description: (§1) We assessed the selectivity of members of this scaffold using the KINOMEscan methodology across a near comprehensive panel of 442 kinases [[18,27]].
# [2] = target: T2, panel of 442 kinases (Homo sapiens, UniProt P54760); format: binding; conditions: Compound Concentration 10 µM
# T2 construct: purchased KINOMEscan
# T2 sequence (P54760 16-987): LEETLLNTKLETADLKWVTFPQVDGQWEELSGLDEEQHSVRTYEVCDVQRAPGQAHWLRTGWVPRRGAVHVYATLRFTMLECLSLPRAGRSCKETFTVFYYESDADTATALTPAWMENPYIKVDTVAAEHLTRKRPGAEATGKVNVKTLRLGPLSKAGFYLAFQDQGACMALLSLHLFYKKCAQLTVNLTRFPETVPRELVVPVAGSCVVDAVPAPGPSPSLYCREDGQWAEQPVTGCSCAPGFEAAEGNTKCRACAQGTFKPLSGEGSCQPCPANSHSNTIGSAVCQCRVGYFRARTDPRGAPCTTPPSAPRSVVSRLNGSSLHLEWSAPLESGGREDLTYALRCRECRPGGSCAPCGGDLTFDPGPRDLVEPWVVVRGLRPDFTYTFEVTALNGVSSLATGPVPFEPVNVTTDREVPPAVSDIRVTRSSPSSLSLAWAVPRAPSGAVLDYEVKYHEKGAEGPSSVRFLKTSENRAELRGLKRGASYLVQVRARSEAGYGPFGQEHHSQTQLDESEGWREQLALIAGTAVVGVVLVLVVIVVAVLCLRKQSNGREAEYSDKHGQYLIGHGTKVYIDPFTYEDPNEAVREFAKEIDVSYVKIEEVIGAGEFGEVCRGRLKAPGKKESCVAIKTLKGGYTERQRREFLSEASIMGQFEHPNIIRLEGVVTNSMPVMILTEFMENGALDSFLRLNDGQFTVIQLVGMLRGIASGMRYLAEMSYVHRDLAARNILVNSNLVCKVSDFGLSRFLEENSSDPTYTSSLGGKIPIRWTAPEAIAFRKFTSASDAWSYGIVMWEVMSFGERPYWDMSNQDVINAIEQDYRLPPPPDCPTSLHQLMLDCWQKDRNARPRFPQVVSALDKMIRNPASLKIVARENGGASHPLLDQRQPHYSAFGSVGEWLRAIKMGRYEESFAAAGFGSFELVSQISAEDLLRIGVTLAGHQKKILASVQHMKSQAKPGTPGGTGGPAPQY
# Description: as §1
SMILES,KINOMEscan: HUNK [1],KINOMEscan: EPHB4 [2]
COc1cc(C(=O)N2CCC(N3CCN(C)CC3)CC2)ccc1Nc1ncc2c(n1)N(C)c1ccccc1C(=O)N2C [15 (LRRK2-IN-1)],100,100
"COc1cc(C(=O)N2CCC(N3CCN(C)CC3)CC2)ccc1Nc1ncc2c(n1)N(C1CCCC1)c1ccccc1C(=O)N2C [Compound 25, 11-cyclopentyl-2-((2-methoxy-4-(4-(4-methylpiperazin-1-yl)piperidine-1-carbonyl)phenyl)amino)-5-methyl-5H-benzo[e]pyrimido[5,4-b][1,4]diazepin-6(11H)-one]",100,100
CCOc1cc(C(=O)N2CCC(N3CCN(C)CC3)CC2)ccc1Nc1ncc2c(n1)N(C1CCCC1)c1ccccc1C(=O)N2C [Compound 26],53,100
